Test results as given in patent US11267844B2, “Spirothietane nucleosides” (Janssen Pharmaceutica NV, priority 2017, dated 2022).
Like-named read-outs stand apart in the source and are kept apart here.

Assays:
[1] = tested on: CHIKV strain S27; assay: CHIKV CPE inhibition assay in Huh7 cells; format: cell-based; details: Chikungunya virus
Method: The antiviral activities of the nucleoside analogs against chikungunya virus (CHIKV) were tested using a cell-based high-throughput CPE (cytopathic effect) inhibition assay. In this assay, CHIKV strain S27 and Huh7 cells (a human hepatoma cell line) were employed. The test compounds were prepared in a 9-point fourfold serial dilutions and plated in a 384-well plate. Then, a density of 8000 cells/well and an MOI (Multiplicity of Infection) of 0.25 CHIKV were added to each well. The plates were incubated at 37° C./5% CO2 for 2 days. The antiviral activity of a test compound was measured by addition of an ATPLite™ 1-step kit (PerkinElmer), which measures the ATP levels in live cells protected from viral CPE by a test compound. The cytotoxicity of test compounds was measured in parallel in the absence of virus infection. The readout is luminescence.

[2] = tested on: HCV replicon (NS3-NS5B regions of HCV type 1b) in Huh-7 luc/neo cells; assay: HCV replicon assay (Huh-Luc cells, luciferase read-out); format: cell-based; details: Hepatitis C virus
From the text: The compounds of Formula (I) were examined for activity against HCV in a cellular assay. […] The cellular assay was based on a bicistronic expression construct, as described by Lohmann et al. (1999) Science vol. 285 pp. 110-113 with modifications described by Krieger et al. (2001) Journal of Virology 75: 4614-4624, in a multi-target screening strategy.
In essence, the method was as follows. The assay utilized the stably transfected cell line Huh-7 luc/neo (hereafter referred to as Huh-Luc). This cell line harbors an RNA encoding a bicistronic expression construct comprising the wild type NS3-NS5B regions of HCV type 1b translated from an internal ribosome entry site (IRES) from encephalomyocarditis virus (EMCV), preceded by a reporter portion (FfL-luciferase), and a selectable marker portion (neo^R, neomycine phosphotransferase). The construct is bordered by 5′ and 3′ NTRs (non-translated regions) from HCV genotype 1b. Continued culture of the replicon cells in the presence of G418 (neo^R) is dependent on the replication of the HCV-RNA. The stably transfected replicon cells that express HCV-RNA, which replicates autonomously and to high levels, encoding inter alia luciferase, were used for screening the antiviral compounds.
The replicon cells were plated in 384-well plates in the presence of the test and control compounds which were added in various concentrations. Following an incubation of three days, HCV replication was measured by assaying luciferase activity (using standard luciferase assay substrates and reagents and a Perkin Elmer ViewLux™ ultraHTS microplate imager). Replicon cells in the control cultures have high luciferase expression in the absence of any inhibitor. The inhibitory activity of the compound on luciferase activity was monitored on the Huh-Luc cells, enabling a dose-response curve for each test compound. EC50 values were then calculated, which value represents the amount of the compound required to decrease the level of detected luciferase activity by 50%, or more specifically, the ability of the genetically linked HCV replicon RNA to replicate.

[3] = tested on: DENV-2/16681/eGFP; assay: Antiviral activity against DENV-2/16681/eGFP in Huh-7 cells (eGFP read-out); format: cell-based, dengue virus serotype 2; details: Dengue virus, DENV2, Huh-7, 72 h, read-out: DENV Huh-7 (EC50, μM)
Method: (§1) The antiviral activity of the compounds against DENV-2/16681/eGFP was determined in a phenotypic antiviral assay with eGFP read-out, a measure for the amount of virus (TV-WI-03476 and TV-WI-05601). In parallel, cytotoxicity of the compounds was measured using ATPLite™ (PerkinElmer, Waltham, Mass.). The assay was performed in two different cell-lines (Vero and Huh-7) to exclude cell-specific activity of the compound.
(§2) DENV-2/16681/eGFP was produced by the transfection of the in vitro transcribed RNA of plasmid pFK-DVs-G2A (purchased from Prof. R. Bartenschlager, University of Heidelberg, Germany; FIG. 1) into Huh-7 cells (human hepatocarcinoma cells; kindly provided by Prof. R. Bartenschlager) (TV-WI-04247).
(§3) In brief, 2,500 Vero cells (African green monkey kidney cells; European Collection of Cell Cultures [ECACC], Porton Down, UK; catalogue number 84113001) or Huh-7 cells were seeded in 384-well plates containing 9-fold serially diluted test compound. After incubating 24 h at 37° C., Vero and Huh-7 cells were infected with DENV-2/16681/eGFP at a multiplicity of infection (MOI) of 1 and 5, respectively. After 3 days of incubation at 37° C., the viral replication was quantified by measuring eGFP expression in the cells with a laser microscope. The 50% effective concentration (EC50) was defined as the concentration inhibiting 50% of the eGFP expression of the compound-treated DENV-infected cells vs. the untreated DENV-infected cells (virus control), using the cell controls as baseline of eGFP signal (i.e., 0% signal). In the same way, the 90% effective concentration (EC90) was calculated.

[4] = Cytotoxicity in Vero cells (ATPlite cell viability); format: cell-based; details: African green monkey, Table 1A, read-out: Tox Vero (CC50)
Method: as §1
(§4) In parallel, cytotoxic effects of the compounds (50% cytotoxic concentration [CC50] and 90% cytotoxic concentration [CC90]) were evaluated using an ATPlite cell viability luminescence assay (PerkinElmer). To this end, ATPlite was added to the wells according to the supplier's instructions once the eGFP read-out was performed, and the luminescence was measured; a measure directly relating to the number of viable cells. The CC50 was determined as the 50% inhibitory concentration for the luminescent signal in compound-treated DENV-infected cells compared to untreated DENV-infected cells (virus control), using a medium control as baseline of emitted light (i.e., 0% signal).

[5] = Cytotoxicity in Huh-7 cells (ATPlite cell viability); format: cell-based; details: human, Table 1A, read-out: Tox Huh-7 (CC50)
Method: as §1, §4

[6] = tested on: DENV-2/16681/eGFP; assay: Antiviral activity against DENV-2/16681/eGFP in Vero cells (eGFP read-out); format: cell-based, dengue virus serotype 2; details: Dengue virus, DENV2, Vero, 72 h, read-out: DENV Vero (EC50, μM)
Method: as §1, §2, §3

[7] = Huh-7, Table 1C, comparison with spiro-oxetane derivatives, read-out: CHIKV, Huh7 (EC50)
[8] = Huh-7, Table 1C, comparison with spiro-oxetane derivatives, read-out: HCV, Huh-7 (EC50)
[9] = Huh-7, 48 h, Table 1A, Huh7 cells, MOI 0.25, 2 days, read-out: CHIKV Huh-7 (EC50)
[10] = Huh-7, 72 h, Table 1A, Huh-Luc replicon cells, 3 days, read-out: HCV Huh-7 (EC50)
[11] = Huh-7, 48 h, read-out: CHIKV Huh-7 (EC50, μM)

SMILES	EC50 [1, 7] [µM]	EC50 [2, 8] [µM]	EC50 [3] [µM]	EC50 [1, 9] [µM]	CC50 [4] [µM]	EC50 [2, 10] [µM]	CC50 [5] [µM]	EC50 [6] [µM]	EC50 [1, 11] [µM]
CC(C)OC(=O)[C@H](C)NP(=O)(OC[C@H]1O[C@@H](n2ccc(=O)[nH]c2=O)[C@@]2(CCO2)[C@@H]1O)Oc1ccccc1 (mixture of isomers) [reference compound]	> 100	21	–	–	–	–	–	–	–
CC(C)OC(=O)[C@H](C)NP(=O)(OC[C@@]1(F)O[C@@H](n2ccc(=O)[nH]c2=O)[C@@]2(CCO2)[C@@H]1O)Oc1ccccc1 (mixture of isomers) [reference compound]	> 100	> 100	–	–	–	–	–	–	–
CC(C)OC(=O)C(C)NP(=O)(OC[C@@]1(N=[N+]=[N-])O[C@@H](n2ccc(=O)[nH]c2=O)[C@@]2(CCS2)[C@@H]1O)Oc1ccccc1 (stereo in doubt) [Compound 45, isopropyl (2R)-2-[[[(4R,5R,6R,8R)-6-azido-8-(2,4-dioxopyrimidin-1-yl)-5-hydroxy-7-oxa-1-thiaspiro[3.4]octan-6-yl]methoxy-phenoxy-phosphoryl]amino]propanoate]	–	–	62	> 100	> 100	5	> 100	62	–
O=c1ccn([C@@H]2O[C@H](CO)[C@@H](O)[C@]23CCS3)c(=O)[nH]1 [Compound 7, 1-((4R,5R,7R,8R)-8-hydroxy-7-(hydroxymethyl)-6-oxa-1-thiaspiro[3.4]octan-5-yl)pyrimidine-2,4(1H,3H)-dione]	–	–	–	–	> 100	> 100	> 100	> 100	–
CC(C)OC(=O)[C@H](C)NP(=O)(OC[C@H]1O[C@@H](n2ccc(=O)[nH]c2=O)[C@@]2(CCS2)[C@@H]1O)Oc1ccccc1 (stereo partly drawn) [Compound 9, (2S)-isopropyl 2-(((((4R,5R,7R,8R)-5-(2,4-dioxo-3,4-dihydropyrimidin-1(2H)-yl)-8-hydroxy-6-oxa-1-thiaspiro[3.4]octan-7-yl)methoxy)(phenoxy)phosphoryl)amino)propanoate]	18	1	9	18	> 100	1	> 100	> 100	–
CC(C)C(=O)OC[C@H]1O[C@@H](n2ccc(=O)[nH]c2=O)[C@@]2(CCS2)[C@@H]1OC(=O)C(C)C [Compound 10, (4R,5R,7R,8R)-5-(2,4-dioxo-3,4-dihydropyrimidin-1(2H)-yl)-7-((isobutyryloxy)methyl)-6-oxa-1-thiaspiro[3.4]octan-8-yl isobutyrate]	–	–	> 100	–	> 100	> 100	> 100	> 100	> 100
CC(C)C(=O)OC[C@H]1O[C@@H](n2ccc(N)nc2=O)[C@@]2(CCS2)[C@@H]1OC(=O)C(C)C [Compound 11, (4R,5R,7R,8R)-5-(4-amino-2-oxopyrimidin-1(2H)-yl)-7-((isobutyryloxy)methyl)-6-oxa-1-thiaspiro[3.4]octan-8-yl isobutyrate]	–	–	> 100	–	> 100	> 100	> 100	> 100	> 100
Nc1ccn([C@@H]2O[C@H](CO)[C@@H](O)[C@]23CCS3)c(=O)n1 [Compound 12, 4-amino-1-((4R,5R,7R,8R)-8-hydroxy-7-(hydroxymethyl)-6-oxa-1-thiaspiro[3.4]octan-5-yl)pyrimidin-2(1H)-one]	–	–	> 100	–	> 100	> 100	> 100	> 100	> 100
CC(C)OC(=O)[C@H](C)NP(=O)(OC[C@H]1O[C@@H](n2ccc(N)nc2=O)[C@@]2(CCS2)[C@@H]1O)Oc1ccccc1 (stereo partly drawn) [Compound 17, (2S)-isopropyl 2-(((((4R,5R,7R,8R)-5-(4-amino-2-oxopyrimidin-1(2H)-yl)-8-hydroxy-6-oxa-1-thiaspiro[3.4]octan-7-yl)methoxy)(phenoxy)phosphoryl)amino)propanoate]	–	–	19	> 50	> 50	> 50	> 50	> 50	–
O=c1ccn([C@@H]2O[C@](F)(CO)[C@@H](O)[C@]23CCS3)c(=O)[nH]1 [Compound 22, 1-((4R,5R,7S,8R)-7-fluoro-8-hydroxy-7-(hydroxymethyl)-6-oxa-1-thiaspiro[3.4]octan-5-yl)pyrimidine-2,4(1H,3H)-dione]	–	–	69	–	> 100	84	> 100	63	> 100
CC(C)OC(=O)[C@H](C)NP(=O)(OC[C@@]1(F)O[C@@H](n2ccc(=O)[nH]c2=O)[C@@]2(CCS2)[C@@H]1O)Oc1ccccc1 (stereo partly drawn) [Compound 23, (2S)-isopropyl 2-(((((4R,5R,7S,8R)-5-(2,4-dioxo-3,4-dihydropyrimidin-1(2H)-yl)-7-fluoro-8-hydroxy-6-oxa-1-thiaspiro[3.4]octan-7-yl)methoxv)(phenoxy)phosphoryl)amino)propanoate]	3	2	14	3	> 100	2	> 100	85	–
CCCCOC(=O)[C@H](C)NP(=O)(OC[C@@]1(F)O[C@@H](n2ccc(=O)[nH]c2=O)[C@@]2(CCS2)[C@@H]1O)Oc1ccccc1 (stereo partly drawn) [Compound 25, (2S)-butyl 2-(((((4R,5R,7S,8R)-5-(2,4-dioxo-3,4-dihydropyrimidin-1(2H)-yl)-7-fluoro-8-hydroxy-6-oxa-1-thiaspiro[3.4]octan-7-yl)methoxy)(phenoxy)phosphoryl)amino)propanoate]	–	–	4	3	> 100	2	> 100	35	–
